# Test results reported in paper PMC7026882, “Macrofilaricidal Benzimidazole–Benzoxaborole Hybrids as an Approach to the Treatment of River Blindness: Part 2. Ketone Linked Analogs” (ACS Infectious Diseases, 2019).
# Read-outs that look alike come from different tables or passages of the source.
# Legend:
# [1] = test system: O. volvulus; assay: O. volvulus molting assay; assay type: cell-based; conditions: Onchocerca volvulus; molting assay
# From the text: As summarized in Table 1, we were encouraged to find that the initial ketone analogs prepared, namely, 15 (6-linked) and 20 (5-linked), were quite active in an O. volvulus molting assay we used as a primary indicator of antiparasitic activity[30],[31] and were only weakly active in a G2/M arrest,[32] indicative of the interaction with mammalian tubulin. As described above, our hypothesis was to reduce Pgp efflux liability through elimination of the hydrogen-bond donor associated with the N–H of the amide linker, as this has been shown in the literature to be a contributor to recognition by Pgp.[33],[34] […] We were disappointed to find that the 5-linked analog 22 was poorly selective and the 6-linked analog 23 was only weakly active. […]
# (§1) in comparison to the number of control larvae that had successfully molted. IC50 values were calculated using GraphPad Prism v6.0 (http://www.graphpad.com). See Bullman et al., PLoS
# (§2) Negl. Trop. Dis., 2015, 9, e3534 for further details.
# (§3) Adult Brugia malayi in vivo model procedure.
# (§4) Gerbils (Meriones unguiculatus) were infected by transplantation of 10 male and 10 female adult Brugia malayi into the peritoneal cavity. Gerbils were acclimated for 7 days prior to treatment. Animals were dosed based on their body weight prior to each dosing. Animals were administered their doses at the same time each day and receive standard rodent laboratory diet and water ad libitum. Gerbils were humanely euthanized at the conclusion of each study.
# (§5) Peritoneal counts of male and female adult B. malayi and visual condition of the peritoneum […]
# (§6) L3 Brugia pahangi in vivo model procedure.
# (§7) Male gerbils (Meriones unguiculatus) approximately 6 weeks of age (50-60 g) were purchased from Charles Rivers (USA, Kingston K62 Gerbils) and infected by intraperitoneal injection with 200 Brugia pahangi third-stage larvae (L3) per animal (Filariatech, Inc., Athens, GA). Gerbils were housed with no more than 5 animals per cage and maintained 9 months prior to treatment. All gerbils were dosed in accordance with their body weight determined prior to each dosing. Animals were administered their doses at the same time each day and are allowed to feed and drink ad libitum. Gerbils were euthanized following approved institutional protocols. Euthanized animals were weighed and examined for external and visceral pathologies. The adult Brugia worms were recovered by opening the body cavity and washing the peritoneal cavity with 100 mL of phosphate buffered saline. Male and female worms were counted using a dissecting microscope.
# (§8) Litomosoides sigmodontis in vivo model procedure. 2
# (§9) All animal experiments with L. sigmodontis were conducted at the Institute for Medical Microbiology, Immunology and Parasitology (IMMIP), University Hospital of Bonn, in accordance to the European Union animal welfare guidelines. All protocols were approved by the local authorities (Landesamt für Natur, Umwelt und Verbraucherschutz, Cologne, Germany (AZ 84- […]
# (§10) Janvier (Saint-Berthevin, France) and were housed at the animal facility of the IMMIP in individually ventilated cages on a 12h light/dark cycle with food and water ad libidum. Mice were infected at 6-8 weeks of age via exposure to the natural mite vector Ornithonyssus bacoti
# [2] = test system: mammalian tubulin (G2/M arrest); assay: G2/M arrest assay, indicative of interaction with mammalian tubulin; assay type: cell-based
# From the text: (§11) As summarized in Table 1, we were encouraged to find that the initial ketone analogs prepared, namely, 15 (6-linked) and 20 (5-linked), were quite active in an O. volvulus molting assay we used as a primary indicator of antiparasitic activity[30],[31] and were only weakly active in a G2/M arrest,[32] indicative of the interaction with mammalian tubulin. As described above, our hypothesis was to reduce Pgp efflux liability through elimination of the hydrogen-bond donor associated with the N–H of the amide linker, as this has been shown in the literature to be a contributor to recognition by Pgp.[33],[34] […] We were disappointed to find that the 5-linked analog 22 was poorly selective and the 6-linked analog 23 was only weakly active.
# [3] = Metabolic stability (Clint) in human microsomes; assay type: in vitro ADME
# From the text: as §11
# [4] = MDCK-MDR1 cell monolayer permeability assay; assay type: in vitro ADME; conditions: dog
# From the text: as §11
# [5] = test system: MDCK-MDR1 cell monolayer; assay: MDCK-MDR1 cell monolayer permeability assay; assay type: in vitro ADME
# From the text: as §11
# [6] = Pharmacokinetics in Mongolian gerbils; assay type: in vivo
# From the text: (§12) In addition, the concentrations achieved at these doses were well in excess of the O. volvulus IC50, a requirement for in vivo activity that we had hypothesized on the basis of earlier work in the amide-linked series.
# [7] = test system: Brugia pahangi; assay: In vivo efficacy in the L3 Brugia pahangi gerbil model; conditions: for Number of Worms Recovered, Avg Female Worms / Number of Worms Recovered, Avg Male Worms: PO, 100 mg/kg, recovery day 63
# Description: For our in vivo model, gerbils were infected by injecting B. pahangi third-stage larvae (L3) that were subsequently allowed to develop to adult worms over several months. Once stable infections had been established, 21 was administered as a suspension via once-daily oral gavage at a dose of 100 mg/kg for 7, 14, or 28 days. All animals were maintained until day 63 after the start of dosing, at which time adult worms were recovered from the peritoneal cavity and microfilariae were quantified in blood samples. Flubendazole (5 mg/kg, SC × 5 days) was included as a positive control in this study. […]
# as §1, §2, §3, §4, §5, §6, §7, §8, §9, §10
# [8] = Tolerability of once daily dosing to gerbils over 7 days; assay type: in vivo
# From the text: as §12
# [9] = Metabolite ID studies, in vitro and in vivo; assay type: in vitro ADME; conditions: in vitro or in vivo experiments
# From the text: However, the metabolism of flubendazole by the reduction of the ketone leads to short-lived clastogenic metabolites at low levels that may pose a minimal risk.[28]
smiles,measurement,setting,value
COC(=O)Nc1nc2ccc(C(=O)c3cccc4c3B(O)OC4)cc2[nH]1 [compound 21],IC50,[1],100 nM
same,IC50,[2],> 38 µM
same,microsomal CLint,[3],5.9 µL/min/mg
same,Papp,[4],56.6 ×10⁻⁶ cm/s
same,MDCK-MDR1 Papp (A-B),[5],56.6 ×10⁻⁶ cm/s
same,CLint scaled,"[6]; Mongolian gerbil, blood, 2 mg/kg, Table 3, IV, dose 2",4.82 mL/min/kg
same,AUC0-last,"[6]; Table 3, IV, dose 2",5.95 µg·h/mL
same,Cmax,"[6]; Table 3, IV, dose 2",1560 ng/mL
same,AUC0-last,"[6]; Table 3, PO, dose 10",61.7 µg·h/mL
same,Cmax,"[6]; Table 3, PO, dose 10",5750 ng/mL
same,AUC(0-t),"[6]; blood, 2 mg/kg, Mongolian gerbils, dose 2, IV, read-out: AUC0–24",5.95 µg·h/mL
same,Cmax,"[6]; blood, 2 mg/kg, Mongolian gerbils, dose 2, IV, read-out: Cmax",1560 ng/mL
same,Vd,"[6]; blood, 2 mg/kg, Table 3, IV, dose 2, read-out: Vdss",3.19 L/kg
same,AUC(0-t),"[6]; blood, 10 mg/kg, Mongolian gerbils, dose 10, PO, read-out: AUC0–24",61.7 µg·h/mL
same,Cmax,"[6]; blood, 10 mg/kg, Mongolian gerbils, dose 10, PO, read-out: Cmax",5750 ng/mL
same,AUC(0-t),"[6]; blood, 10 mg/kg, Table 3, SC, dose 10, read-out: AUC0-last",35.7 µg·h/mL
same,Cmax,"[6]; blood, 10 mg/kg, Table 3, SC, dose 10, read-out: Cmax",3130 ng/mL
same,AUC(0-t),"[6]; blood, 30 mg/kg, Table 3, PO, dose 30, read-out: AUC0-last",196 µg·h/mL
same,Cmax,"[6]; blood, 30 mg/kg, Table 3, PO, dose 30, read-out: Cmax",17200 ng/mL
same,AUC(0-t),"[6]; blood, 60 mg/kg, Table 3, PO, dose 60, read-out: AUC0-last",361 µg·h/mL
same,Cmax,"[6]; blood, 60 mg/kg, Table 3, PO, dose 60, read-out: Cmax",26300 ng/mL
same,AUC(0-t),"[6]; blood, 100 mg/kg, Table 3, PO, dose 100, read-out: AUC0-last",479 µg·h/mL
same,Cmax,"[6]; blood, 100 mg/kg, Table 3, PO, dose 100, read-out: Cmax",34500 ng/mL
same,bioavailability,"[6]; blood, po, 10 mg/kg, Mongolian gerbils, dose 10, PO, read-out: bioavailability (%F)",~100%
same,bioavailability,"[6]; blood, po, 10 mg/kg, Table 3, PO, dose 10, read-out: %F",100%
same,bioavailability,"[6]; blood, sc, 10 mg/kg, Table 3, SC, dose 10, read-out: %F",100%
same,accumulation of the compound,[6]; once daily dosing to gerbils over 7 days,no accumulation
same,dose proportionality of exposure,"[6]; oral dosing to gerbils, up to 100 mg/kg",dose proportional
same,effective in killing female worms,[7]; 100 mg/kg PO once daily for 14 days,99%
same,effective in killing female worms,[7]; 100 mg/kg PO once daily for 28 days,99%
same,effect on worms,[7]; 100 mg/kg PO once daily for only 7 days,very little effect
same,"Number of Worms Recovered, Avg Female Worms","[7]; 7 days, QD",13.0
same,"Number of Worms Recovered, Avg Male Worms","[7]; 7 days, QD",25.2
same,"Number of Worms Recovered, Avg Female Worms","[7]; 14 days, QD",0.6
same,"Number of Worms Recovered, Avg Male Worms","[7]; 14 days, QD",11.4
same,"Number of Worms Recovered, Avg Female Worms",[7]; 28 days QD,0.1
same,"Number of Worms Recovered, Avg Male Worms",[7]; 28 days QD,11.1
same,tolerability,[8],well tolerated
same,metabolism in metabolite ID studies,[9],have not observed a significant metabolism
